Source: the supplement of paper PMC13380429

Assays:
[1] = system: A549-ACE2 infected with SARS-CoV-2; assay: cell count relative to DMSO; higher = less toxic; details: 24 h
Caco-2 [2] = assay: cell viability relative to DMSO; higher = less toxic; details: 72 h
Calu-3 [3] = assay: as above; details: 72 h
HepG2 [4] = assay: as above; details: 72 h
U2OS [5] = assay: as above; details: 72 h
Vero E6 [6] = assay: as above; details: 72 h
[7] = system: A549-ACE2 infected with SARS-CoV-2; assay: SARS-CoV-2 infection rate relative to DMSO; higher = more infection; details: 24 h
A549-ACE2 = assay: drug-induced phospholipidosis relative to tamoxifen; higher = more phospholipidosis
[8] = system: A549-ACE2 infected with SARS-CoV-2; assay: morphology score (similarity to uninfected cells); higher = more like uninfected cells; details: 24 h
Calu-3 [9] = assay: relative viability EC50 (midpoint between 100% and the lowest measured viability); higher = less toxic; details: 72 h
HepG2 [10] = assay: as above; details: 72 h
U2OS [11] = assay: as above; details: 72 h
Vero E6 [12] = assay: as above; details: 72 h
Caco-2 [13] = assay: drug sensitivity score (DSS) for viability; higher = more toxic; extreme values may be limits of the assay; details: 72 h
Calu-3 [14] = assay: as above; details: 72 h
HepG2 [15] = assay: as above; details: 72 h
U2OS [16] = assay: as above; details: 72 h
Vero E6 [17] = assay: as above; details: 72 h
Caco-2 [18] = assay: relative viability EC50 (midpoint between 100% and the lowest measured viability); higher = less toxic; details: 72 h

CCCCCC(=O)O[C@]1(C(C)=O)CC[C@H]2[C@@H]3CCC4=CC(=O)CC[C@]4(C)[C@H]3CC[C@@]21C [17-hydroxyprogesterone-caproate]
Details | SARS-CoV-2 infection rate, [7] [%] | cell count, [1] [%] | cell viability, Caco-2 [2] [%] | cell viability, Calu-3 [3] [%] | cell viability, HepG2 [4] [%] | cell viability, U2OS [5] [%] | cell viability, Vero E6 [6] [%] | morphology score, [8]
1 nM | – | – | 92.7 | 86.9 | 97.1 | 98.1 | 97.8 | –
10 nM | – | – | 95.9 | 99 | 96.6 | 95.7 | 103 | –
100 nM | – | – | 107 | 100 | 98 | 99.7 | 95.1 | –
0.3 µM | 95 | 103 | – | – | – | – | – | 0.25
1000 nM | – | – | 92.8 | 88.6 | 97.6 | 99.4 | 95.4 | –
3 µM | 88 | 104 | – | – | – | – | – | 0.34
10 µM | 81 | 106 | – | – | – | – | – | 0.47
10000 nM | – | – | 64.7 | 99.5 | 94.8 | 95.9 | 103 | –
30 µM | 34 | 104 | – | – | – | – | – | 0.79

drug-induced phospholipidosis [%], A549-ACE2
Details | 0.3 µM | 0.833333 µM | 3.33333 µM | 6.66667 µM | 10 µM | 30 µM
24 h | 6.66 | 6.09 | 4.63 | 8.81 | 8.05 | 21.5
48 h | 5.77 | 4.75 | 0.98 | 3.88 | 3.43 | 9.55
72 h | 6.76 | 2.38 | 2.24 | 4.3 | 4.77 | 13.6

Details | drug sensitivity score | relative viability EC50
Caco-2 [13] | 2.8 | –
Calu-3 [9] | – | > 10 µM
Calu-3 [14] | 0 | –
HepG2 [10] | – | > 10000 nM
HepG2 [15] | 0 | –
U2OS [11] | – | > 10 µM
U2OS [16] | 0 | –
Vero E6 [12] | – | > 10 µM
Vero E6 [17] | 0 | –

C=CC(=O)N1CCN(C(=O)CNc2cc(I)c(Cl)cc2O)CC1 [K-Ras(G12C)-inhibitor-12]
Details | SARS-CoV-2 infection rate, [7] [%] | cell count, [1] [%] | cell viability, Caco-2 [2] [%] | cell viability, Calu-3 [3] [%] | cell viability, HepG2 [4] [%] | cell viability, U2OS [5] [%] | cell viability, Vero E6 [6] [%] | morphology score, [8]
1 nM | – | – | 102 | 112 | 95.2 | 108 | 101 | –
10 nM | – | – | 96.3 | 103 | 98.1 | 96.9 | 107 | –
100 nM | – | – | 106 | 104 | 88.2 | 104 | 90.2 | –
0.3 µM | 74 | 109 | – | – | – | – | – | 0.34
1000 nM | – | – | 88.3 | 75.5 | 72.8 | 96.6 | 54.1 | –
3 µM | 86 | 93 | – | – | – | – | – | 0.05
10 µM | 76 | 93 | – | – | – | – | – | 0.03
10000 nM | – | – | 76.6 | 79.5 | 42.8 | 93.5 | 40.1 | –
30 µM | 77 | 85 | – | – | – | – | – | -0.03

drug-induced phospholipidosis [%], A549-ACE2
Details | 0.3 µM | 0.833333 µM | 3.33333 µM | 6.66667 µM | 10 µM | 30 µM
24 h | 8.49 | 7.52 | 10 | 12 | 13.7 | 24
48 h | 5.08 | 2.66 | 7.02 | 10.2 | 11.5 | 19.6
72 h | 5.88 | 1.74 | 5.37 | 8.06 | 13.5 | 16

Details | drug sensitivity score | relative viability EC50
Caco-2 [13] | 2.2 | –
Caco-2 [18] | – | > 10000 nM
Calu-3 [9] | – | > 10 µM
Calu-3 [14] | 3.5 | –
HepG2 [10] | – | 805 nM
HepG2 [15] | 6.5 | –
U2OS [11] | – | > 10 µM
U2OS [16] | 0 | –
Vero E6 [12] | – | 0.388 µM
Vero E6 [17] | 9.6 | –

CC[C@@]1([C@H]2O[C@H]([C@H]3O[C@@](O)(CO)[C@H](C)C[C@@H]3C)C[C@H]2C)CC[C@H]([C@@]2(C)CC[C@]3(C[C@H](O)[C@@H](C)[C@@H]([C@H](C)[C@H](OC)[C@@H](C)C(=O)O)O3)O2)O1 [MONENSIN SODIUM]
Details | SARS-CoV-2 infection rate, [7] [%] | cell count, [1] [%] | cell viability, Caco-2 [2] [%] | cell viability, Calu-3 [3] [%] | cell viability, HepG2 [4] [%] | cell viability, U2OS [5] [%] | cell viability, Vero E6 [6] [%] | morphology score, [8]
1 nM | – | – | 93.9 | 99 | 94.6 | 99.5 | 96.7 | –
10 nM | – | – | 93.4 | 93.1 | 107 | 96.2 | 103 | –
100 nM | – | – | 109 | 89.9 | 91.8 | 99.3 | 95.6 | –
0.3 µM | 50 | 114 | – | – | – | – | – | 0.72
1000 nM | – | – | 56.9 | 68 | 82.9 | 97.1 | 103 | –
3 µM | 61 | 108 | – | – | – | – | – | 0.85
10 µM | 25 | 115 | – | – | – | – | – | 0.83
10000 nM | – | – | 20.9 | 36.9 | 26.2 | 35.4 | 102 | –
30 µM | 17 | 119 | – | – | – | – | – | 0.82

drug-induced phospholipidosis [%], A549-ACE2
Details | 0.3 µM | 0.833333 µM | 3.33333 µM | 6.66667 µM | 10 µM | 30 µM
24 h | -1.18 | -1.15 | 0.94 | 1.15 | -4.98 | -12.7
48 h | 5.4 | 3.73 | 5.09 | -3.84 | -2.31 | -14.7
72 h | 6.27 | 4.79 | 7.82 | – | – | –

Details | drug sensitivity score | relative viability EC50
Caco-2 [13] | 9.7 | –
Caco-2 [18] | – | 934 nM
Calu-3 [9] | – | 0.789 µM
Calu-3 [14] | 7.5 | –
HepG2 [10] | – | 1610 nM
HepG2 [15] | 6.8 | –
U2OS [11] | – | 2.83 µM
U2OS [16] | 3.9 | –
Vero E6 [12] | – | > 10 µM
Vero E6 [17] | 0 | –
